Test results from PubChem BioAssay AID330 (DTP/NCI, 2004).
Where “and” joins values, the source holds several entries; their conditions need not be identical. Equal values may be shown once. Toxic doses and inconclusive results are not listed. Rule for the calls: active = survival T/C of 150% or more; inactive = T/C below 125% in these data.

Tested on: P388 leukemia ip, CD2F1 mice, survival T/C
Assay: NCI In Vivo Anticancer Drug Screen. Data for tumor model P388 Leukemia (intraperitoneal) in CD2F1 (CDF1) mice
Conditions: endpoint: median survival time, higher = longer survival
Summary of the method: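 Mice carrying the transplanted tumor received test compound or vehicle. Survival was recorded in each group, and the value is the treated-group measurement divided by that of the vehicle-treated control group.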

[1] = dose: 50.0 mg/kg/injection, schedule: Q01DX009 (ip), vehicle: saline with Tween-80
[2] = dose: 100.0 mg/kg/injection, schedule: Q01DX009 (ip), vehicle: saline with Tween-80
[3] = dose: 200.0 mg/kg/injection, schedule: Q01DX009 (ip), vehicle: saline with Tween-80
[4] = dose: 100.0 mg/kg/injection, schedule: Q01DX001 (ip), vehicle: Klucel (hydroxypropylcellulose) (HPC)
[5] = dose: 200.0 mg/kg/injection, schedule: Q01DX001 (ip), vehicle: Klucel (hydroxypropylcellulose) (HPC)
[6] = dose: 12.5 mg/kg/injection, schedule: Q01DX009 (ip), vehicle: saline
[7] = dose: 100.0 mg/kg/injection, schedule: Q01DX009 (ip), vehicle: saline
[8] = dose: 6.25 mg/kg/injection, schedule: Q01DX009 (ip), vehicle: saline with Tween-80
[9] = dose: 12.5 mg/kg/injection, schedule: Q01DX009 (ip), vehicle: saline with Tween-80
[10] = dose: 25.0 mg/kg/injection, schedule: Q01DX009 (ip), vehicle: saline with Tween-80
[11] = dose: 50.0 mg/kg/injection, schedule: Q01DX005 (ip), vehicle: saline with Tween-80
[12] = dose: 100.0 mg/kg/injection, schedule: Q01DX005 (ip), vehicle: saline with Tween-80
[13] = dose: 200.0 mg/kg/injection, schedule: Q01DX005 (ip), vehicle: saline with Tween-80

Measured: T/C

CCOC(=O)CCCCCCCNC(=O)N1c2c(nc(N)[nH]c2=O)NCC1CNc1ccc(C(=O)NC(CCC(=O)O)C(=O)O)cc1 (stereo not given)
inactive: dose: 50.0 mg/kg/injection, schedule: Q01DX001 (ip), vehicle: sodium bicarbonate 100 % of control | dose: 100.0 mg/kg/injection, schedule: Q01DX001 (ip), vehicle: sodium bicarbonate 101 % of control | dose: 200.0 mg/kg/injection, schedule: Q01DX001 (ip), vehicle: sodium bicarbonate 100 % of control

Nc1ncnc2nc[nH]c12
inactive: dose: 16.0 mg/kg/injection, schedule: Q01DX009 (ip), vehicle: Klucel (hydroxypropylcellulose) (HPC) 100 % of control | dose: 32.0 mg/kg/injection, schedule: Q01DX009 (ip), vehicle: Klucel (hydroxypropylcellulose) (HPC) 103 % of control and 108 % of control and 109 % of control | dose: 32.0 mg/kg/injection, schedule: Q01DX009 (ip), vehicle: saline with Tween-80 106 % of control and 118 % of control | [1] 99 % of control | dose: 64.0 mg/kg/injection, schedule: Q01DX009 (ip), vehicle: Klucel (hydroxypropylcellulose) (HPC) 106 % of control | dose: 64.0 mg/kg/injection, schedule: Q01DX009 (ip), vehicle: saline with Tween-80 111 % of control and 97 % of control | [2] 114 % of control | dose: 128.0 mg/kg/injection, schedule: Q01DX009 (ip), vehicle: Klucel (hydroxypropylcellulose) (HPC) 110 % of control | dose: 128.0 mg/kg/injection, schedule: Q01DX009 (ip), vehicle: saline with Tween-80 100 % of control and 108 % of control | [3] 110 % of control | dose: 256.0 mg/kg/injection, schedule: Q01DX009 (ip), vehicle: Klucel (hydroxypropylcellulose) (HPC) 88 % of control | dose: 256.0 mg/kg/injection, schedule: Q01DX009 (ip), vehicle: saline with Tween-80 118 % of control

CC(CN=C(CC(=O)c1ccccc1)c1ccccc1)N=C(CC(=O)c1ccccc1)c1ccccc1 (stereo not given)
inactive: [1] 104 % of control | [2] 103 % of control | [3] 97 % of control

O=C1/C(=C/c2ccc3c(c2)OCO3)C2CCC(N2)/C1=C\c1ccc2c(c1)OCO2
inactive: dose: 50.0 mg/kg/injection, schedule: Q01DX001 (ip), vehicle: Klucel (hydroxypropylcellulose) (HPC) 103 % of control | [4] 96 % of control | [5] 96 % of control

Oc1ccccc1C=NCCC[N-]CCCN=Cc1ccccc1O.[Co]
inactive: [6] 113 % of control | [7] 119 % of control

CCCN=Cc1ccccc1O.CCCN=Cc1ccccc1O.[Cu]
inactive: dose: 3.75 mg/kg/injection, schedule: Q01DX005 (ip), vehicle: Klucel (hydroxypropylcellulose) (HPC) 100 % of control | dose: 7.5 mg/kg/injection, schedule: Q01DX005 (ip), vehicle: Klucel (hydroxypropylcellulose) (HPC) 104 % of control | dose: 15.0 mg/kg/injection, schedule: Q01DX005 (ip), vehicle: Klucel (hydroxypropylcellulose) (HPC) 97 % of control | dose: 30.0 mg/kg/injection, schedule: Q01DX005 (ip), vehicle: Klucel (hydroxypropylcellulose) (HPC) 92 % of control and 97 % of control | dose: 60.0 mg/kg/injection, schedule: Q01DX005 (ip), vehicle: Klucel (hydroxypropylcellulose) (HPC) 108 % of control and 115 % of control

c1ccc2cc(N3CCOCC3)ccc2c1
inactive: [2] 116 % of control | [3] 119 % of control | dose: 400.0 mg/kg/injection, schedule: Q01DX009 (ip), vehicle: saline with Tween-80 116 % of control

CCCCOP(=O)(O)SP(=O)(O)OCCCC
inactive: [4] 103 % of control | dose: 100.0 mg/kg/injection, schedule: Q01DX001 (ip), vehicle: saline 103 % of control and 106 % of control and 98 % of control | dose: 100.0 mg/kg/injection, schedule: Q04DX003 (ip), vehicle: suspension in saline 105 % of control | [5] 119 % of control | dose: 200.0 mg/kg/injection, schedule: Q01DX001 (ip), vehicle: saline 106 % of control and 98 % of control and 103 % of control | dose: 200.0 mg/kg/injection, schedule: Q04DX003 (ip), vehicle: suspension in saline 105 % of control | dose: 400.0 mg/kg/injection, schedule: Q01DX001 (ip), vehicle: Klucel (hydroxypropylcellulose) (HPC) 104 % of control | dose: 400.0 mg/kg/injection, schedule: Q01DX001 (ip), vehicle: saline 106 % of control and 103 % of control and 94 % of control | dose: 400.0 mg/kg/injection, schedule: Q04DX003 (ip), vehicle: suspension in saline 110 % of control

C/C(C(=O)c1ccccc1)=C1/NC(C)(C)CO1
inactive: dose: 60.0 mg/kg/injection, schedule: Q01DX005 (ip), vehicle: saline with Tween-80 101 % of control | dose: 120.0 mg/kg/injection, schedule: Q01DX005 (ip), vehicle: saline with Tween-80 103 % of control | dose: 240.0 mg/kg/injection, schedule: Q01DX005 (ip), vehicle: saline with Tween-80 101 % of control

COC(=O)c1nc(SC)[nH]c1CC#N
inactive: dose: 100.0 mg/kg/injection, schedule: Q04DX002 (ip), vehicle: saline with Tween-80 108 % of control | dose: 200.0 mg/kg/injection, schedule: Q04DX002 (ip), vehicle: saline with Tween-80 98 % of control | dose: 400.0 mg/kg/injection, schedule: Q04DX002 (ip), vehicle: saline with Tween-80 99 % of control

CC1Cc2c([nH]c3ccc(Cl)cc23)CN1 (stereo not given)
inactive: dose: 3.12 mg/kg/injection, schedule: Q01DX009 (ip), vehicle: saline with Tween-80 106 % of control | [8] 100 % of control | [9] 101 % of control | [10] 101 % of control

CC(Cl)CN(CC(C)Cl)c1ccc2c(c1)Cc1ccccc1-2 (stereo not given)
inactive: dose: 50.0 mg/kg/injection, schedule: Q01DX009 (ip), vehicle: Klucel (hydroxypropylcellulose) (HPC) 122 % of control | dose: 100.0 mg/kg/injection, schedule: Q01DX009 (ip), vehicle: Klucel (hydroxypropylcellulose) (HPC) 112 % of control

O=c1c2cc(O)ccc2oc2cc(O)cc(O)c12
inactive: dose: 10.0 mg/kg/injection, schedule: Q01DX009 (ip), vehicle: saline 104 % of control | dose: 20.0 mg/kg/injection, schedule: Q01DX009 (ip), vehicle: saline 111 % of control | dose: 40.0 mg/kg/injection, schedule: Q01DX009 (ip), vehicle: saline 111 % of control | dose: 80.0 mg/kg/injection, schedule: Q01DX009 (ip), vehicle: saline 105 % of control

CCCCc1c(O)c(N=NC(=N)N)c2ccccc2c1O
inactive: [11] 100 % of control | [12] 101 % of control | [13] 99 % of control

COc1ccc(C(=O)/C=C/c2ccc(OCc3ccccc3)cc2)c(OC)c1
inactive: [8] 99 % of control | [9] 93 % of control | [10] 91 % of control

CCN(CC)c1ccc(NC(C(=O)c2ccccc2)c2ccccc2)cc1 (stereo not given)
inactive: dose: 3.12 mg/kg/injection, schedule: Q01DX005 (ip), vehicle: Klucel (hydroxypropylcellulose) (HPC) 104 % of control and 109 % of control | dose: 6.25 mg/kg/injection, schedule: Q01DX005 (ip), vehicle: Klucel (hydroxypropylcellulose) (HPC) 103 % of control and 109 % of control and 96 % of control | dose: 12.5 mg/kg/injection, schedule: Q01DX005 (ip), vehicle: Klucel (hydroxypropylcellulose) (HPC) 104 % of control and 121 % of control and 96 % of control | dose: 25.0 mg/kg/injection, schedule: Q01DX005 (ip), vehicle: Klucel (hydroxypropylcellulose) (HPC) 112 % of control and 95 % of control

CC(O)CN(CCN(CC(C)O)CC(C)O)CC(C)O.[Cl-].[Co+2] (stereo not given)
inactive: [6] 108 % of control and 111 % of control | dose: 25.0 mg/kg/injection, schedule: Q01DX009 (ip), vehicle: saline 107 % of control and 110 % of control | dose: 50.0 mg/kg/injection, schedule: Q01DX009 (ip), vehicle: saline 111 % of control and 112 % of control and 119 % of control | [7] 123 % of control and 92 % of control

COc1ccc2c(c1)OC(C)(C)C(c1ccccc1)=C2c1ccc(O)c([N+](=O)[O-])c1
inactive: [11] 100 % of control | [12] 101 % of control | [13] 102 % of control

C=C(C)Cn1ccn(C)c1=S
inactive: dose: 100.0 mg/kg/injection, schedule: Q04DX003 (ip), vehicle: saline with Tween-80 96 % of control | dose: 200.0 mg/kg/injection, schedule: Q04DX003 (ip), vehicle: saline with Tween-80 98 % of control | dose: 400.0 mg/kg/injection, schedule: Q04DX003 (ip), vehicle: saline with Tween-80 102 % of control

Nc1ccc2c(c1)CC1CC(=O)NN=C21 (stereo not given)
inactive: dose: 60.0 mg/kg/injection, schedule: Q01DX005 (ip), vehicle: saline 98 % of control | dose: 120.0 mg/kg/injection, schedule: Q01DX005 (ip), vehicle: saline 92 % of control | dose: 240.0 mg/kg/injection, schedule: Q01DX005 (ip), vehicle: saline 98 % of control

O=C(Nc1ccc(Cl)cc1)OCCSc1nc2ccccc2s1
inactive: [1] 102 % of control | [2] 105 % of control | [3] 93 % of control

Cc1nn(C(=S)S)c(C)c1N=Nc1cc(Cl)ccc1Cl
inactive: [11] 100 % of control | [12] 95 % of control | [13] 95 % of control
